Assay results: ChEMBL document CHEMBL3885861, “Open TG-GATES”

Species on record: Rattus norvegicus
Test: Open TG-GATES - Regimen: Single
Type: toxicity, organism-based, Sprague-Dawley
Design: regimen Single, gender Male, age 6 weeks
Settings: in vivo, po, 100 mg/kg, route gavage, dose level Low; for APTT / Bas / Eos / Fbg / Hb / Ht / Lym / MCH / MCHC / MCV / Mono / Neu / PT / Plat / RBC / Ret / WBC: tissue Blood; for KIDNEY_L / KIDNEY_R / KIDNEY_TOTAL: tissue Kidney; for LIVER: tissue Liver; for A/G / ALP / ALT / AST / BUN / CRE / Ca / Cl / DBIL / GLC / IP / K / LDH / Na / PL / RALB / TBIL / TC / TG / TP / gamma-GTP: tissue Plasma

CC(=O)Nc1ccc2c(c1)Cc1ccccc1-2 [2-ACETYLAMINOFLUORENE]
TERMINAL_BW (3 h): 222.2 g
APTT (3 h): 19.4 s
Bas (3 h): 0.8%
Eos (3 h): 1%
Fbg (3 h): 228.6 mg/dL
Hb (3 h): 14.1 g/dL
Ht (3 h): 40.7%
Lym (3 h): 76.4%
MCH (3 h): 21.6 pg
MCHC (3 h): 34.7%
MCV (3 h): 62.3 fL
Mono (3 h): 2%
Neu (3 h): 19.2%
PT (3 h): 11.6 s
Plat (3 h): 114.3 x10_4/uL
RBC (3 h): 653.2 x10_4/ul
Ret (3 h): 7%
WBC (3 h): 73.8 x10_2/uL
KIDNEY_L (3 h): 1 g
KIDNEY_R (3 h): 1 g
KIDNEY_TOTAL (3 h): 2 g
LIVER (3 h): 10.4 g
A/G (3 h): 1.8
ALP (3 h): 1019.4 IU/L
ALT (3 h): 37.6 IU/L
AST (3 h): 77 IU/L
BUN (3 h): 13.2 mg/dL
CRE (3 h): 0.4 mg/dL
Ca (3 h): 10.7 mg/dL
Cl (3 h): 103.4 meq/L
DBIL (3 h): 0.07 mg/dL
GLC (3 h): 212.8 mg/dL
IP (3 h): 10.8 mg/dL
K (3 h): 4 meq/L
LDH (3 h): 203.8 IU/L
Na (3 h): 141.4 meq/L
PL (3 h): 151 mg/dL
RALB (3 h): 3.6 g/dL
TBIL (3 h): 0.1 mg/dL
TC (3 h): 92.6 mg/dL
TG (3 h): 45.8 mg/dL
TP (3 h): 5.6 g/dL
gamma-GTP (3 h): 1 IU/L
TERMINAL_BW (6 h): 219.9 g
APTT (6 h): 20.9 s
Bas (6 h): 0.4%
Eos (6 h): 1%
Fbg (6 h): 221.6 mg/dL
Hb (6 h): 13.9 g/dL
Ht (6 h): 40.1%
Lym (6 h): 81.6%
MCH (6 h): 21.3 pg
MCHC (6 h): 34.6%
MCV (6 h): 61.5 fL
Mono (6 h): 2.4%
Neu (6 h): 14.2%
PT (6 h): 12.2 s
Plat (6 h): 132.9 x10_4/uL
RBC (6 h): 652 x10_4/ul
Ret (6 h): 7%
WBC (6 h): 82.3 x10_2/uL
KIDNEY_L (6 h): 1 g
KIDNEY_R (6 h): 1 g
KIDNEY_TOTAL (6 h): 2 g
LIVER (6 h): 9.9 g
A/G (6 h): 1.6
ALP (6 h): 792.8 IU/L
ALT (6 h): 31.6 IU/L
AST (6 h): 70.6 IU/L
BUN (6 h): 10 mg/dL
CRE (6 h): 0.4 mg/dL
Ca (6 h): 10.5 mg/dL
Cl (6 h): 101.8 meq/L
DBIL (6 h): 0.064 mg/dL
GLC (6 h): 195.6 mg/dL
IP (6 h): 9.4 mg/dL
K (6 h): 4.1 meq/L
LDH (6 h): 169 IU/L
Na (6 h): 140.4 meq/L
PL (6 h): 135.6 mg/dL
RALB (6 h): 3.4 g/dL
TBIL (6 h): 0.1 mg/dL
TC (6 h): 79.2 mg/dL
TG (6 h): 45.2 mg/dL
TP (6 h): 5.6 g/dL
gamma-GTP (6 h): 1 IU/L
TERMINAL_BW (9 h): 218.6 g
APTT (9 h): 19 s
Bas (9 h): 0.6%
Eos (9 h): 0.8%
Fbg (9 h): 227.6 mg/dL
Hb (9 h): 14.1 g/dL
Ht (9 h): 40.8%
Lym (9 h): 72.8%
MCH (9 h): 21.4 pg
MCHC (9 h): 34.5%
MCV (9 h): 62.2 fL
Mono (9 h): 3%
Neu (9 h): 22%
PT (9 h): 12.9 s
Plat (9 h): 124.3 x10_4/uL
RBC (9 h): 655 x10_4/ul
Ret (9 h): 6.7%
WBC (9 h): 79.5 x10_2/uL
KIDNEY_L (9 h): 0.9 g
KIDNEY_R (9 h): 0.9 g
KIDNEY_TOTAL (9 h): 1.9 g
LIVER (9 h): 9.5 g
A/G (9 h): 1.5
ALP (9 h): 754.8 IU/L
ALT (9 h): 31 IU/L
AST (9 h): 67.2 IU/L
BUN (9 h): 10.8 mg/dL
CRE (9 h): 0.4 mg/dL
Ca (9 h): 10.5 mg/dL
Cl (9 h): 104.2 meq/L
DBIL (9 h): 0.064 mg/dL
GLC (9 h): 211.2 mg/dL
IP (9 h): 9.1 mg/dL
K (9 h): 3.8 meq/L
LDH (9 h): 230 IU/L
Na (9 h): 141.2 meq/L
PL (9 h): 124.8 mg/dL
RALB (9 h): 3.4 g/dL
TBIL (9 h): 0.1 mg/dL
TC (9 h): 65 mg/dL
TG (9 h): 56.8 mg/dL
TP (9 h): 5.7 g/dL
gamma-GTP (9 h): 1 IU/L
TERMINAL_BW (24 h): 221.4 g
APTT (24 h): 21.7 s
Bas (24 h): 0.2%
Eos (24 h): 1%
Fbg (24 h): 215.6 mg/dL
Hb (24 h): 14.6 g/dL
Ht (24 h): 42%
Lym (24 h): 76.8%
MCH (24 h): 22.2 pg
MCHC (24 h): 34.7%
MCV (24 h): 63.8 fL
Mono (24 h): 5%
Neu (24 h): 16.6%
PT (24 h): 14.5 s
Plat (24 h): 140.8 x10_4/uL
RBC (24 h): 658.2 x10_4/ul
Ret (24 h): 6.5%
WBC (24 h): 91.5 x10_2/uL
KIDNEY_L (24 h): 1 g
KIDNEY_R (24 h): 1 g
KIDNEY_TOTAL (24 h): 2.1 g
LIVER (24 h): 11.2 g
A/G (24 h): 1.8
ALP (24 h): 1020 IU/L
ALT (24 h): 37.8 IU/L
AST (24 h): 74 IU/L
BUN (24 h): 17.2 mg/dL
CRE (24 h): 0.4 mg/dL
Ca (24 h): 10.4 mg/dL
Cl (24 h): 105.4 meq/L
DBIL (24 h): 0.1 mg/dL
GLC (24 h): 187.8 mg/dL
IP (24 h): 8.4 mg/dL
K (24 h): 4.6 meq/L
LDH (24 h): 207.4 IU/L
Na (24 h): 140.6 meq/L
PL (24 h): 120.8 mg/dL
RALB (24 h): 3.3 g/dL
TBIL (24 h): 0.2 mg/dL
TC (24 h): 52 mg/dL
TG (24 h): 120.6 mg/dL
TP (24 h): 5.1 g/dL
gamma-GTP (24 h): 1.4 IU/L
